Experiment: recombinant UMI read abundance after kanamycin selection (control-corrected) (log10(CPM+1)); higher = more efficient recombination; extreme values may be limits of the assay; sequences stand for … in AGTGCAGAGAAAATCGGCCAGTTTTCTCTGCCTGCAGTCCGCATGCCGTGGGACCCCTTGGGTTCTAACCTGTTGCCTAGATTTATGCAGCGGACTGCCTTTCTCCCAAAGTGATAAACCGG…AGGTTGGTTTCACT; site = the 11-nt donor
Protocol: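 Pooled E. coli donor-specificity screen for the IS621 bridge recombinase. Each library member carries a reprogrammed 11-nt donor and a full-length LE bridge RNA expressed in cis from the natural promoter, with a paired donor-binding loop (8-nt LDG + 4-nt RDG) and a target-binding loop fixed to T5. It is co-electroporated with a T5 target plasmid; recombinase is induced with 0.07 mM IPTG and recombinants are selected on kanamycin. UMIs are counted as CPM, averaged over two biological replicates and corrected by the unselected control. Molecule = full bridge RNA written as DNA, built from the T5 scaffold: LDG = donor specificity nt 1-8, RDG = reverse complement of nt 8-11.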
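Note: IS621 bridge recombinase in Escherichia coli cells against a fixed T5 target plasmid.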

Row | Sequence | recombinant UMI read abundance (log10)
1 | AGCTCAGCATGGACCGGTTTTCCCGGTAATCCGTATTTGGG (site AGCTAAGCTCC) | 0.0351
2 | GTAGAGGCATGGACCGGTTTTCCCGGTAATCCGTATTTGTG (site GTGGAGGCTCA) | 0.704
3 | GCCAAGCCATGGACCGGTTTTCCCGGTAATCCGTATTTGTA (site GCCAAGCCTTA) | 1.69
4 | TACATAACATGGACCGGTTTTCCCGGTAATCCGTATTTGCA (site TACATAACTTG) | 0.258
5 | CGGAATCCATGGACCGGTTTTCCCGGTAATCCGTATTTGGT (site CGGAATCCTAA) | 0
6 | ATTGAGACATGGACCGGTTTTCCCGGTAATCCGTATTTGGT (site ATTTAGACTAC) | 0.353
7 | GATTGGACATGGACCGGTTTTCCCGGTAATCCGTATTTGAT (site GATTGGACTCT) | 0.0264
8 | CTAGTATCATGGACCGGTTTTCCCGGTAATCCGTATTTGAC (site ATGGTATCTGT) | 0.837
9 | TCACGGCCATGGACCGGTTTTCCCGGTAATCCGTATTTGGT (site TCACGGCCTAC) | 0.00583
10 | GTGGCACCATGGACCGGTTTTCCCGGTAATCCGTATTTGCA (site GGGGCACCTTG) | 0
11 | ATTGAGACATGGACCGGTTTTCCCGGTAATCCGTATTTGGT (site ATCGAGACTAC) | 0.854
12 | AAAAGACCATGGACCGGTTTTCCCGGTAATCCGTATTTGTA (site AAAAGACCTTA) | 0
13 | GGCAATCCATGGACCGGTTTTCCCGGTAATCCGTATTTGTA (site GGCAATCCTTT) | 0
14 | ATTGAAACATGGACCGGTTTTCCCGGTAATCCGTATTTGGT (site ATTGATACTAC) | 0.0144
15 | ACTGTATCATGGACCGGTTTTCCCGGTAATCCGTATTTGAA (site ACAGTATCTTG) | 0
16 | ACGTTTACATGGACCGGTTTTCCCGGTAATCCGTATTTGCT (site TCGTTTACTAG) | 1.37
17 | TCAGTGACATGGACCGGTTTTCCCGGTAATCCGTATTTGCG (site TCAGTGACTCG) | 1.21
18 | AAACATACATGGACCGGTTTTCCCGGTAATCCGTATTTGTG (site AAACATACTCA) | 1.38
19 | CGGAACCCATGGACCGGTTTTCCCGGTAATCCGTATTTGGT (site CGGAACCCTAC) | 1.06
20 | AATGAGTCATGGACCGGTTTTCCCGGTAATCCGTATTTGAC (site AATGGGTCTGT) | 0
21 | CTAGTATCATGGACCGGTTTTCCCGGTAATCCGTATTTGAC (site CAAGTCTCTGT) | 0
22 | CGGCCTCCATGGACCGGTTTTCCCGGTAATCCGTATTTGTT (site CGGAATCCTAA) | 0.0121
23 | TTAGCTGCATGGACCGGTTTTCCCGGTAATCCGTATTTGGG (site TTAGCTGCTCA) | 0
24 | CGTCGAACATGGACCGGTTTTCCCGGTAATCCGTATTTGTT (site CGTTGAACTAA) | 0.00437

Row | Sequence | recombinant UMI read abundance (log10)
25 | TCAGAGACATGGACCGGTTTTCCCGGTAATCCGTATTTGCG (site GCAGAGACTCG) | 0.00466
26 | AGCATAGCATGGACCGGTTTTCCCGGTAATCCGTATTTGTT (site AGCATAGCTAA) | 1.99
27 | CCCGGTCCATGGACCGGTTTTCCCGGTAATCCGTATTTGCG (site CCCGGTCCTAG) | 0
28 | TAGCCTCCATGGACCGGTTTTCCCGGTAATCCGTATTTGTT (site TAGCCTCCTAA) | 0.0845
29 | AGCGTTACATGGACCGGTTTTCCCGGTAATCCGTATTTGTA (site AGCGTTACTTA) | 0.651
30 | ATCTATACATGGACCGGTTTTCCCGGTAATCCGTATTTGAC (site ATCTAGACTGT) | 0
31 | CGATCGACATGGACCGGTTTTCCCGGTAATCCGTATTTGTC (site CGATCGACTGA) | 1.08
32 | GTAGTCCCATGGACCGGTTTTCCCGGTAATCCGTATTTGCG (site GTAGTCCCTCG) | 0.791
33 | ATCCAAGCATGGACCGGTTTTCCCGGTAATCCGTATTTGAG (site ATCCAAACTCT) | 1.09
34 | GAAAAACCATGGACCGGTTTTCCCGGTAATCCGTATTTGGT (site GATAAACCTAC) | 0
35 | GGCCGCCCATGGACCGGTTTTCCCGGTAATCCGTATTTGTT (site GGCCACCCTAA) | 0.0225
36 | GAAGATTCATGGACCGGTTTTCCCGGTAATCCGTATTTGTA (site GAAGATTCTTA) | 2.5
37 | ATCCAAGCATGGACCGGTTTTCCCGGTAATCCGTATTTGAG (site AACCAAGCTCT) | 0.0115
38 | TACTGAGCATGGACCGGTTTTCCCGGTAATCCGTATTTGGG (site TATTGAGCTCC) | 0
39 | CCTAAGGCATGGACCGGTTTTCCCGGTAATCCGTATTTGAT (site CCTAATGCTAT) | 0
40 | CTAGCTTCATGGACCGGTTTTCCCGGTAATCCGTATTTGAC (site CTAGTATCTGT) | 0
41 | CTACTATCATGGACCGGTTTTCCCGGTAATCCGTATTTGCC (site CTACTATCTGG) | 2.95
42 | CTTCCCTCATGGACCGGTTTTCCCGGTAATCCGTATTTGTA (site CTTCACTCTTA) | 0.00365
43 | GGTCCAACATGGACCGGTTTTCCCGGTAATCCGTATTTGTT (site GGTCCAACTTA) | 0.0123
44 | TAATCAGCATGGACCGGTTTTCCCGGTAATCCGTATTTGGG (site TAATAAGCTCC) | 0.00976
45 | GTGGAGGCATGGACCGGTTTTCCCGGTAATCCGTATTTGTG (site GTGGGGGCTCA) | 0.918
46 | ATCTCTACATGGACCGGTTTTCCCGGTAATCCGTATTTGAC (site ATCTGTACTGT) | 0.00346
47 | GATTGGACATGGACCGGTTTTCCCGGTAATCCGTATTTGAT (site GATTGGACTTT) | 0.0212
48 | GGCTTAACATGGACCGGTTTTCCCGGTAATCCGTATTTGTC (site GGCTTAACTGA) | 0.732

Row | Sequence | recombinant UMI read abundance (log10)
49 | CAGAATCCATGGACCGGTTTTCCCGGTAATCCGTATTTGTT (site CGGAATCCTAA) | 0.0121
50 | TGATACTCATGGACCGGTTTTCCCGGTAATCCGTATTTGCA (site TGATACTCTTG) | 2.51
51 | ATCTATACATGGACCGGTTTTCCCGGTAATCCGTATTTGAC (site CTCTATACTGT) | 2.17
52 | CGTGGACCATGGACCGGTTTTCCCGGTAATCCGTATTTGGG (site CGCGGACCTCC) | 0.00423
53 | GGAGTGGCATGGACCGGTTTTCCCGGTAATCCGTATTTGGT (site GGGGTGGCTAC) | 0.0193
54 | AGAAATCCATGGACCGGTTTTCCCGGTAATCCGTATTTGTT (site AGAAATCCTAA) | 0.589
55 | CGTGCAACATGGACCGGTTTTCCCGGTAATCCGTATTTGTT (site CGTGGAACTAA) | 0.018
56 | TTCTTGACATGGACCGGTTTTCCCGGTAATCCGTATTTGTG (site TTCTTGACTCA) | 0.0069
57 | CTAGTCTCATGGACCGGTTTTCCCGGTAATCCGTATTTGAC (site CTAGTTTCTGT) | 0.799
58 | GGAGTGGCATGGACCGGTTTTCCCGGTAATCCGTATTTGGC (site GGAGTGGCTGC) | 2
59 | GAGCGCACATGGACCGGTTTTCCCGGTAATCCGTATTTGAT (site GAGCTCACTAT) | 0.111
60 | GGAACAGCATGGACCGGTTTTCCCGGTAATCCGTATTTGCC (site GGAACAGCTGG) | 3.09
61 | GGGCTCACATGGACCGGTTTTCCCGGTAATCCGTATTTGAT (site GGGCTCACTAT) | 1.73
62 | CGAGCAGCATGGACCGGTTTTCCCGGTAATCCGTATTTGCT (site CGAGCAGCTAG) | 2.13
63 | ACTTGATCATGGACCGGTTTTCCCGGTAATCCGTATTTGCG (site ACTTGATCTCG) | 1.57
64 | CCTAATACATGGACCGGTTTTCCCGGTAATCCGTATTTGGC (site CCTAATACTCC) | 0.00819
65 | TTAGCTGCATGGACCGGTTTTCCCGGTAATCCGTATTTGTG (site TTAGCTCCTCA) | 0.0123
66 | CGGTATCCATGGACCGGTTTTCCCGGTAATCCGTATTTGTT (site CGGTATCCTAA) | 0.562
67 | GGCAATCCATGGACCGGTTTTCCCGGTAATCCGTATTTGAC (site GGCAATCCTGT) | 0.665
68 | CAATTCGCATGGACCGGTTTTCCCGGTAATCCGTATTTGCT (site CAATTCCCTAG) | 0
69 | TACTTGACATGGACCGGTTTTCCCGGTAATCCGTATTTGCT (site TACTTGACTCG) | 0
70 | ATCATTTCATGGACCGGTTTTCCCGGTAATCCGTATTTGCA (site ATCATTTCTTG) | 1.73
71 | GAGCACGCATGGACCGGTTTTCCCGGTAATCCGTATTTGGG (site CAGCACGCTCC) | 0.0292
72 | CCGCGTGCATGGACCGGTTTTCCCGGTAATCCGTATTTGCG (site CCGCGTGCTCG) | 0.222

Source: the supplement of paper PMC11208160
